Columns and labels:
[1] = test system: NaNO2 induced anoxia; assay: NaNO2 induced anoxia in mice; assay type: in vivo, mouse; conditions: 70 mg/kg p.o.; NaNO2 225 mg/kg ip
[2] = test system: Wistar rat; assay: Social recognition in the Wistar rat; assay type: in vivo; conditions: dose of 20 mg/kg (printed for Example 13); second encounter after 2 hours
Text: Initially described in 1982 by THOR and HOLLOWAY (J. Comp. Physiol., 1982, 96, 1000-1006), the social recognition test has subsequently been proposed by various authors (DANTZER et al., Psychopharmacology, 1987, 91, 363-368; PERIO et al., Psychopharmacology, 1989, 97, 262-268) for studying the mnemocognitive effects of new compounds. The test is based on the natural expression of the olfactory memory of the rat and its natural tendency to forget, and allows evaluation of memorisation, by recognition of a young congeneric animal, by an adult rat. A young rat (21 days), taken at random, is placed for 5 minutes in the cage housing an adult rat. With the aid of a video device, the experimenter observes the social recognition behaviour of the adult rat and measures its overall duration. The young rat is then removed from the adult rat's cage and is placed in its own cage until the second introduction. The adult rat is given the compound under test and, after 2 hours, is again brought into the presence (5 minutes) of the young rat. The social recognition behaviour is then observed again and its duration measured. The assessment criterion is the difference (T2−T1), expressed in seconds, between the “recognition” times of the 2 encounters.

[3] = test system: Wistar rat; assay: Object recognition in the Wistar rat; assay type: in vivo; conditions: dose of 3 mg/kg; second session 24 hours later
Text: The object recognition test in the Wistar rat was initially developed by ENNACEUR and DELACOUR (Behav. Brain Res., 1988, 31, 47-59). The test is based on the spontaneous exploratory activity of the animal and has the characteristics of episodic memory in humans. This memory test is sensitive to ageing (SCALI et al., Eur. J. Pharmacol., 1997, 325, 173-180) and to cholinergic dysfunctions (BARTOLINI et al., Pharm. Biochem. Behav. 1996, 53(2), 277-283) and is based on the differences in the exploration of 2 objects of fairly similar shape—one familiar, the other new. Prior to the test, the animals are habituated to the environment (an enclosure without an object). In the course of a first session, the rats are placed (3 minutes) in the enclosure, in which there are 2 identical objects. The duration of exploration is measured for each object. In the course of the second session (3 minutes), 24 hours later, 1 of the 2 objects is replaced by a new object. The duration of exploration is measured for each object. The assessment criterion is the difference, Delta, expressed in seconds, between the exploration times for the new object and for the familiar object in the course of the second session.

Structure (SMILES)	prolongation of survival [1] [%]	difference (T2−T1) between the recognition times of the 2 encounters [2] [s]	difference, Delta, between the exploration times for the new object and the familiar object [3] [s]
CCC(=O)Oc1c(OC)cc(Cl)c2c1C13CCN(C)C(C2)C1C=C(OC)C(OC(=O)CC)C3 (stereo not drawn) [Example 5, (9α,13α)-1-Chloro-3,7-dimethoxy-17-methyl4-(propionyloxy)7,8-didehydromorphinan-6-yl propionate]	31	-31	–
COC1=CC2C3Cc4c(Cl)cc(OC)c(O)c4C2(CCN3C)CC1O (stereo not drawn) [Example 4, (9α,13α)-1-Chloro-3,7-dimethoxy-17-methyl-7,8-didehydromorphinan-4,6-diol]	–	–	10
COC1=CC2C3Cc4c(Br)cc(OC)c(O)c4C2(CCN3C)CC1O (stereo not drawn) [Example 13, (9α,13α)-1-Bromo-3,7-dimethoxy-17-methyl-7,8-didehydromorphinan-4,6-diol]	–	-36	–
